Results on five molecules are retold here after patent publication US8802702B2, “Compounds for reducing drug resistance and uses thereof” (The General Hospital Corporation, priority 2009, dated 2014).

Read-outs that look alike come from different tables or passages of the source.

For one series, the system named is OVCAR8TR cells. Nature of the series: Reversal of drug resistance, cytotoxicity (MTT) assay in OVCAR8TR. In kind it is cell-based, human. The following applies: anti-cancer drug alone, no NSC23925, read-out: OVCAR8TR IC50. The method, then: FIGS. 1 (a-b) are graphs that depict the effects of NSC23925 on drug sensitivity in ovarian cancer cells; 1(a) depicts the effects of NSC23925 on sensitive (SKOV-3) and resistant (SKOV-3TR) cells; 1(b) depicts the effects of NSC23925 on sensitive (OVCAR8) and resistant (OVCAR8TR) cells. Cells were treated with the paclitaxel and NSC23925 in RPMI1640 complete media at the indicated concentrations. The relative sensitivity of each line to paclitaxel was determined by MTT assay, as described below in the Examples section, 6 days post treatment. A: Reversal of paclitaxel resistance by NSC23925 in SKOV-3TR cells. B: Reversal of paclitaxel resistance by NSC23925 in OVCAR8TR cells.
(§1) Drug cytotoxicity was assessed in vitro using the MTT assay. SKOV-3 and SKOV-3TR cells were used herein. Briefly, 2×10^3 cells per well were plated in 96-well plates in culture medium (RPMI 1640 supplemented with 10% fetal bovine serum and penicillin/streptomycin) containing increasing concentrations of drug. After 7 days of culture, 10 μl MTT (5 mg/ml in PBS, obtained from Sigma) were added to each well and the plates were incubated for 4 h. The resulting formazan product was dissolved with acid-isopropanol and the absorbance at a wavelength of 490 nm (A490) was read on a SPECTRAmax® Microplate Spectrophotometer (Molecular Devices, Sunnyvale, Calif.). The absorbance values were normalized by assigning the value of the control line in the medium without drug to 1.0 and the value of the no cell control to 0. Experiments were performed in triplicate.

Another series has as its system KHOSR2 cells. Kind of series: Reversal of drug resistance, cytotoxicity assay in KHOSR2. The class given is cell-based, human. The settings on record: anti-cancer drug alone, no NSC23925, read-out: KHOSR2 IC50.
For the next series, the system named is SKOV-3TR cells. Kind of series: Reversal of drug resistance, cytotoxicity (MTT) assay in SKOV-3TR. The class given is cell-based. The settings on record: anti-cancer drug alone, no NSC23925, read-out: SKOV-3TR IC50. The method, then:
FIGS. 1 (a-b) are graphs that depict the effects of NSC23925 on drug sensitivity in ovarian cancer cells; 1(a) depicts the effects of NSC23925 on sensitive (SKOV-3) and resistant (SKOV-3TR) cells; 1(b) depicts the effects of NSC23925 on sensitive (OVCAR8) and resistant (OVCAR8TR) cells. […] The relative sensitivity of each line to paclitaxel was determined by MTT assay, as described below in the Examples section, 6 days post treatment. […]
as §1, with “After 7 days of culture, 10 μl MTT (5 mg/ml in PBS, obtained from Sigma) were added to each well and the plates were incubated for 4 h.” left out

For series [1] the following is noted: background statement; cited from earlier work.

What is called IC50 is the concentration needed to halve the response being measured. Regarding `COc1cccc2c1C(=O)c1c(O)c3c(c(O)c1C2=O)C[C@@](O)(C(=O)CO)C[C@@H]3O[C@H]1C[C@H](N)[C@H](O)[C@H](C)O1` [Doxorubicin, reference compound], the IC50 in the series on OVCAR8TR cells (Homo sapiens, 144 h) was 27620 ± 256 nM; in the series with KHOSR2 cells (Homo sapiens), 10300 ± 566 nM; in the series on SKOV-3TR cells (Homo sapiens, SKOV3TR, 144 h) it was 22340 ± 200 nM.

For the molecule `COc1cc2c(cc1O)CCN[C@]21CS[C@@H]2c3c(OC(C)=O)c(C)c4c(c3[C@H](COC1=O)N1[C@@H]2[C@H]2c3c(cc(C)c(OC)c3O)C[C@@H]([C@@H]1O)N2C)OCO4` [ET-743, reference compound], the IC50 in the series on OVCAR8TR cells (Homo sapiens, 144 h) stood at 6 ± 2 nM; with KHOSR2 cells (Homo sapiens), 175 ± 25 nM; in the series on SKOV-3TR cells (Homo sapiens, SKOV3TR, 144 h), 4 ± 2 nM.

As for `COc1c(C)cc2c(c1O)[C@@H]1[C@@H]3Cc4c(OC(C)=O)c(C)c5c(c4[C@H](CNC(=O)/C=C/c4cccc(C(F)(F)F)c4)N3[C@@H](O)[C@H](C2)N1C)OCO5` [PM00104, reference compound], the IC50 is 8 ± 2 nM with OVCAR8TR cells, 143 ± 45 nM with KHOSR2 cells and 6 ± 1 nM with SKOV-3TR cells.

As to `C/C=C/C[C@@H](C)C(=O)[C@H]1C(=O)N[C@@H](C(C)C)C(=O)N(C)CC(=O)N(C)[C@@H](CC(C)C)C(=O)N[C@@H](C(C)C)C(=O)N(C)[C@@H](CC(C)C)C(=O)N[C@@H](C)C(=O)N[C@H](C)C(=O)N(C)[C@@H](CC(C)C)C(=O)N(C)[C@@H](CC(C)C)C(=O)N(C)[C@@H](C(C)C)C(=O)N1C` [PSC 833], the “Reported toxicity / side effects at doses used to modify drug resistance” value in series [1] is “cerebellar ataxia and hyperbilirubinemia toxicities”.

In the case of `CC(=O)O[C@H]1C(=O)[C@@]2(C)[C@H]([C@H](OC(=O)c3ccccc3)[C@]3(O)C[C@H](OC(=O)[C@H](O)[C@@H](NC(=O)c4ccccc4)c4ccccc4)C(C)=C1C3(C)C)[C@]1(OC(C)=O)CO[C@@H]1C[C@@H]2O` [Paclitaxel, reference compound], the half-maximal inhibitory concentration (IC50) with OVCAR8TR cells (Homo sapiens, 144 h) was determined as 340 ± 32 nM; in the series with KHOSR2 cells (Homo sapiens), 210 ± 23 nM; with SKOV-3TR cells (Homo sapiens, SKOV3TR, 144 h) it was 310 ± 21 nM.
